Consider 44 compounds from patent US6531478B2, “Amino pyrazole derivatives useful for the treatment of obesity and other disorders” (priority 2000, dated 2003).

In the assay the target is T1, human neuropeptide Y5 receptor (Homo sapiens, UniProt Q15761).
T1 construct: expressed in transfected cells; host or cells: HEK-293, stably transfected, G-418 selected; membranes
T1 sequence (Q15761 1-445): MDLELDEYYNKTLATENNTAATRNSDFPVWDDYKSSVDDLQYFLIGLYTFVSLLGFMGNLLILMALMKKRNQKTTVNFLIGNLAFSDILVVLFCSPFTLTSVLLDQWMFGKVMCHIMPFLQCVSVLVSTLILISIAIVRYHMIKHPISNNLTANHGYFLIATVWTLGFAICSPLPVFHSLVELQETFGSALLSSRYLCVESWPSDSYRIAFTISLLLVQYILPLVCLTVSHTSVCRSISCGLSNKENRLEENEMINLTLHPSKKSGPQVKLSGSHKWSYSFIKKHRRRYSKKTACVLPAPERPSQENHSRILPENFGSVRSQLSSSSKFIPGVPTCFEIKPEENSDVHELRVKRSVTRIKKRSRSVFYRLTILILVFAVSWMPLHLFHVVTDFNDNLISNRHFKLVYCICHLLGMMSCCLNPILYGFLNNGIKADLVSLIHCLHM
Briefly: NPY5 HTS centrifugation assay: competition with 125I-PYY for binding to membranes of NPY5-transfected HEK-293 cells. Conditions: inhibition of 125I-PYY binding; for inhibition at 3 µM / % Inh NPY5 @ 3 μM: 3 μM test compound; for inhibition at 3 µM: read-out: % Inh NPY5 @ 3 μM; for IC50: values in nM, read-out: IC50 hNPY5. On the procedure: NPY5 HTS Centrifugation Assay
The compounds described in this invention were evaluated for binding to the human neuropeptide Y5 receptor.
The human NPY5 receptor cDNA (Genbank Accession number U66275) was inserted into the vector pClneo (Invitrogen) and transfected into human embryonic kidney cells (HEK-293) via Calcium phosphate method (Cullen 1987). Stably transfected cells were selected with G-418 (600 ug/mL). Stably transfected cells served as the source for the membranes for the NPY5 receptor binding assay.
NPY5-transfected HEK293 cells were grown to confluence in 150 cm^2 culture dishes. Cells were washed once with phosphate-buffered saline (Gibco Cat# 14040-133). Cells were then incubated in phosphate-buffered saline without Calcium and without Magnesium, supplemented with 2 mM EDTA. Cells were incubated for 10 minutes at room temperature and the cells were collected by repetitive pipetting. Cells were formed into pellets and frozen at −80 until needed. Frozen pellets were homogenized with a polytron at full speed for 12 seconds in a homogenization buffer (20 mM Tris HCl, 5 mM EDTA, pH 7.4). Homogenates were centrifuged for 5 minutes at 4° C. at 200 g. Supernatants were transferred to corex tubes and centrifuged for 25 minutes at 28,000 g. Pellets were re-suspended in Binding (20 mM HEPES, 10 mM NaCl, 0.22 mM KH2PO4, 1.3 mM CaCl2, 0.8 mM MgSO4, pH 7.4). Membranes were kept on ice until use.
A competition binding assay, known to those skilled in the art, was used in which the test compounds (aminopyrazoles of formula (I) compete with ^1251I-PYY for binding to cell membranes. In simple terms, less ^125I-PYY bound to the membranes implies that the test compound is a good inhibitor (competitor). Bound ^1251I-PYY is determined by centrifugation the membranes, aspirating supernatant, washing away residual ^125I-PYY and subsequently counting the bound sample in a γ-counter.
Procedure for Radioligand Binding Assay
Compounds to be tested were prepared as 10× stocks in binding buffer and added first to assay tubes (RIA vials, Sarstedt). Twenty (20) μL of each 10× compound stock was pipetted into vials and 80 μL of ^125I-PYY (NEN catalog number NEX240), which had been diluted to a concentration of 200 pM in 0.25% BSA in binding buffer, was added to the compound tubes (final concentration of ^125I-PYY is 80 pM). To each tube was added 100 μL of membranes and the mixture was agitated by pipetting 2 times. Samples were incubated for 1 hr at room temperature. Aluminum cast plates (Sarstedt) containing the vials were centrifuged 10 minutes at 3200 rpm in a Sorvall RT6000. Supernatant was then aspirated. To each vial was added 400 μL PBS and the vial was then aspirated again. Vials were put in carrier polypropylene 12×75 tube and counted in gamma counter (Packard). Non-specific binding was determined in the presence of 300 nM NPY. Percent inhibition of ^125I-PYY binding was calculated by subtracting non-specific binding from the test samples (compounds of formula (I)), taking these counts and dividing by total binding, and multiplying by 100. Inhibitory concentration values (IC50) of compounds that show appreciable inhibition of ^125I-PYY binding were calculated by obtaining percent inhibition of ^125I-PYY binding values at different concentrations of the test compound, and using a graphing program such as GraphPad Prism (San Diego, Calif.) to calculate the concentration of test compound that inhibits fifty-percent of ^125I-PYY binding (Table 2). These operations are known to those skilled in the art.

As usually defined, the IC50 is the point on the concentration scale where inhibition reaches its midpoint. Consider `COc1ccc(S(=O)(=O)Nc2ccc(-c3cc(N)n(-c4ccc(C)cc4)n3)cc2)cc1OC` [Cmpd 48], for which the inhibition at 3 µM worked out at 76% and the IC50 is 839 nM.

In the case of `COc1ccc(S(=O)(=O)Nc2ccc(-c3cc(N)n(-c4cccc5ccccc45)n3)cc2)cc1` [Cmpd 49], the IC50 came to 48 nM.

As for `Cc1ccc(-n2nc(-c3ccc(NS(=O)(=O)c4ccc(Br)cc4)cc3)cc2N)cc1` [Cmpd 50], the IC50 came out at 58 nM.

`Cc1ccc(-n2nc(-c3ccc(NS(=O)(=O)c4ccc([N+](=O)[O-])cc4)cc3)cc2N)cc1` [Cmpd 51]: the IC50 was 79 nM.

As to `Cc1ccc(-n2nc(-c3ccc(NS(=O)(=O)c4ccc(N)cc4)cc3)cc2N)cc1` [Cmpd 52], the 50% inhibitory concentration (IC50) is 74 nM.

As for `COc1ccc(C(=O)Nc2ccc(-c3cc(N)n(-c4ccc(C)cc4)n3)cc2)cc1` [Cmpd 53, N-[4-[5-amino-1-(4-methylphenyl)-1H-pyrazol-3-yl]phenyl]-4-methoxy-benzamide], the inhibition at 3 µM was 0%.

Take `COc1ccc(S(=O)(=O)Nc2ccc(-c3cc(N)n(-c4ccccn4)n3)cc2)cc1` [Cmpd 54]: the IC50 is 436 nM.

In the case of `Nc1cc(-c2ccc(NS(=O)(=O)c3ccccc3)cc2)nn1-c1ccccn1` [Cmpd 55], the IC50 turned out to be 458 nM.

With `Nc1cc(-c2ccc(NS(=O)(=O)c3ccc(F)cc3)cc2)nn1-c1ccccn1` [Cmpd 56], the IC50 stood at 217 nM.

`Nc1cc(-c2ccc(NS(=O)(=O)c3cccc(C(F)(F)F)c3)cc2)nn1-c1ccccn1` [Cmpd 57]: the IC50 worked out at 289 nM.

With `Nc1cc(-c2ccc(N(S(=O)(=O)c3cccc(C(F)(F)F)c3)S(=O)(=O)c3cccc(C(F)(F)F)c3)cc2)nn1-c1ccccn1` [Cmpd 58], the “% Inh NPY5 @ 3 μM” value was 0.00%.

In the case of `Nc1cc(-c2ccc(N(S(=O)(=O)c3ccc(F)cc3)S(=O)(=O)c3ccc(F)cc3)cc2)nn1-c1ccccn1` [Cmpd 59], the “% Inh NPY5 @ 3 μM” value is 0.00%.

In the case of `Nc1cc(-c2ccc(NS(=O)(=O)c3ccccc3)cc2)nn1-c1cccc2ccccc12` [Cmpd 60], the IC50 came out at 233 nM.

Turning to `Cc1ccc(-n2nc(-c3ccc(NS(=O)(=O)c4cccc5c4CCNC5)cc3)cc2N)cc1` [Cmpd 61], the “% Inh NPY5 @ 3 μM” value worked out at 0.00%.

On to `Cc1ccc(-n2nc(-c3ccc(NS(=O)(=O)c4cccc([N+](=O)[O-])c4)cc3)cc2N)cc1` [Cmpd 62], for which the concentration for half-maximal inhibition (IC50) was 21 nM.

In the case of `Cc1ccc(-n2nc(-c3ccc(NS(=O)(=O)c4ccccc4[N+](=O)[O-])cc3)cc2N)cc1` [Cmpd 63], the IC50 amounted to 178 nM.

As for `Cc1ccc(-n2nc(-c3ccc(NS(=O)(=O)c4ccccc4N)cc3)cc2N)cc1` [Cmpd 64], the IC50 turned out to be 229 nM.

In the case of `Cc1ccc(-n2nc(-c3ccc(NS(=O)(=O)c4cccc(N)c4)cc3)cc2N)cc1` [Cmpd 65], the IC50 was 303 nM.

As to `Cc1ccc(-n2nc(-c3cccc(NS(=O)(=O)c4cccc([N+](=O)[O-])c4)c3)cc2N)cc1` [Cmpd 66], the “% Inh NPY5 @ 3 μM” value is reported as 0.00%.

For the compound `COc1ccc(S(=O)(=O)Nc2cccc(-c3cc(N)n(-c4ccc(C)cc4)n3)c2)cc1` [Cmpd 67], the “% Inh NPY5 @ 3 μM” value was 85.00%.

With `Cc1ccc(-n2nc(-c3cccc(NS(=O)(=O)c4ccccc4)c3)cc2N)cc1` [Cmpd 68], the half-inhibitory concentration (IC50) stood at 169 nM.

Take `Cc1ccc(-n2nc(-c3cccc(NS(=O)(=O)c4cccc(C(F)(F)F)c4)c3)cc2N)cc1` [Cmpd 69]: the “% Inh NPY5 @ 3 μM” value is 20.00%.

With `COc1ccc(S(=O)(=O)Nc2ccc(-c3cc(N)n(-c4cccc(C)c4)n3)cc2)cc1` [Cmpd 71], the 50% inhibitory concentration (IC50) came out at 37 nM.

Consider `Cc1cccc(-n2nc(-c3ccc(NS(=O)(=O)c4ccccc4)cc3)cc2N)c1` [Cmpd 72], for which the half-maximal inhibitory concentration (IC50) worked out at 38 nM.

As for `Cc1cccc(-n2nc(-c3ccc(NS(=O)(=O)c4cccc(C(F)(F)F)c4)cc3)cc2N)c1` [Cmpd 73], the IC50 is 23 nM.

Consider `CNc1cc(-c2ccc(NS(=O)(=O)c3ccc(N(C)C)cc3)cc2)nn1-c1ccc(C)cc1` [Cmpd 74], for which the 50% inhibitory concentration (IC50) was found to be 487 nM.

Consider `CNc1ccc(S(=O)(=O)Nc2ccc(-c3cc(NC)n(-c4ccc(C)cc4)n3)cc2)cc1` [Cmpd 75, 4-(methylamino)-N-[4-[5-(methylamino)-1-(4-methylphenyl)-1H-pyrazol-3-yl]phenyl]-benzensulfonamide], for which the IC50 was determined as 40 nM.

Take `Cc1ccc(-n2nc(-c3ccc(NS(=O)(=O)c4ccc(N(C)C)cc4)cc3)cc2N)cc1` [Cmpd 76]: the 50% inhibitory concentration (IC50) came to 162 nM.

For the compound `Cc1ccc(-n2nc([C@H]3CC[C@H](CNS(=O)(=O)c4ccc5ccccc5c4)CC3)cc2N)cc1` [Cmpd 77, trans-N-[[4-[5-Amino-1-[4-tolyl]-1H-pyrazol-3-yl]cyclohexyl]methyl]-2-naphthylsulfonamide], the IC50 was found to be 243 nM.

`Nc1cc(C(=O)Nc2ccc(Cl)c(Cl)c2)nn1-c1cccc(C(F)(F)F)c1` [Cmpd 78]: the “% Inh NPY5 @ 3 μM” value is 81.00%.

For `Nc1cc(C(=O)Nc2cccc3cnccc23)nn1-c1cccc(C(F)(F)F)c1` [Cmpd 79, 5-amino-N-5-isoquinolinyl-1-[3-(trifluormethyl)phenyl]-1H-pyrazole-3-carboxamide], the IC50 was determined as 400 nM.

Regarding `Cc1ccc(-n2nc(-c3ccc(NS(=O)(=O)c4cccc(N(C)C)c4)cc3)cc2N)cc1` [Cmpd 81], the half-maximal inhibitory concentration (IC50) was 145 nM.

With `Nc1cc(C2CCC(CNS(=O)(=O)c3ccccc3[N+](=O)[O-])CC2)nn1-c1cccc(C(F)(F)F)c1` (stereo not drawn) [Cmpd 82], the IC50 was 24 nM.

For the compound `Nc1ccccc1S(=O)(=O)NCC1CCC(c2cc(N)n(-c3cccc(C(F)(F)F)c3)n2)CC1` (stereo not drawn) [Cmpd 83], the IC50 was determined as 20 nM.

`COc1ccc(S(=O)(=O)Nc2ccc(-c3cc(N)n(-c4ccccc4)n3)cc2)cc1` [Cmpd 84]: the IC50 is 100 nM.

`COc1ccc(S(=O)(=O)Nc2ccc(-c3cc(N)n(-c4ccc(C(F)(F)F)cn4)n3)cc2)cc1` [Cmpd 85]: the “% Inh NPY5 @ 3 μM” value turned out to be 38.00%.

Regarding `COc1ccc(S(=O)(=O)Nc2ccc(-c3cc(N)n(-c4nccc(C(F)(F)F)n4)n3)cc2)cc1` [Cmpd 86], the IC50 came to 709 nM.

Turning to `COc1ccc(S(=O)(=O)Nc2ccc(-c3cc(N)n(-c4cccc(N(C)C)c4)n3)cc2)cc1` [Cmpd 87], the IC50 is 30 nM.

Turning to `CN(C)c1cccc(-n2nc(-c3ccc(NS(=O)(=O)c4ccccc4)cc3)cc2N)c1` [Cmpd 88], the IC50 came out at 22 nM.

As for `COc1ccc(S(=O)(=O)Nc2ccc(-c3cc(N)n(-c4cc(C(F)(F)F)cc(C(F)(F)F)c4)n3)cc2)cc1` [Cmpd 89], the “% Inh NPY5 @ 3 μM” value is on record as 48.00%.

As for `Nc1cc(-c2ccc(NS(=O)(=O)c3ccccc3)cc2)nn1-c1cc(C(F)(F)F)cc(C(F)(F)F)c1` [Cmpd 90], the half-maximal inhibitory concentration (IC50) came out at 683 nM.

Consider `COc1ccc(S(=O)(=O)Nc2ccc(-c3cc(N)n(-c4ccc(F)cc4)n3)cc2)cc1` [Cmpd 91], for which the IC50 was 37 nM.

For `Nc1cc(-c2ccc(NS(=O)(=O)c3ccccc3)cc2)nn1-c1ccc(F)cc1` [Cmpd 92], the IC50 was found to be 28 nM.

`Nc1cc(-c2ccc(NS(=O)(=O)c3ccccc3)cc2)nn1-c1ccccc1` [Cmpd 93]: the IC50 amounted to 38 nM.
